Reference: PubChem BioAssay (NCI)
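96-well plates; 48 h exposure; 5 concentrations. Endpoints by linear interpolation between flanking doses. Not reached: highest tested concentration assigned. TGI denotes the concentration required for complete inhibition of growth.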

How the values were obtained:
Assay in all cases: inhibition of tumour cell growth, NCI panel, 48 h
EKVX NSCLC = test system: EKVX NSCLC
OVCAR-5 ovarian = test system: OVCAR-5 ovarian
SK-OV-3 ovarian = test system: SK-OV-3 ovarian
MDA-N = test system: MDA-N
MCF7 breast = test system: MCF7 breast
A549 NSCLC = test system: A549 NSCLC
OVCAR-3 ovarian = test system: OVCAR-3 ovarian
MALME-3M melanoma = test system: MALME-3M melanoma
M14 melanoma = test system: M14 melanoma
SW-620 colon = test system: SW-620 colon
SR leukemia = test system: SR leukemia
CAKI-1 renal = test system: CAKI-1 renal
UACC-257 melanoma = test system: UACC-257 melanoma
DU-145 prostate = test system: DU-145 prostate
HCT-116 colon = test system: HCT-116 colon
RXF 393 renal = test system: RXF 393 renal
NCI-H522 lung = test system: NCI-H522 lung
SK-MEL-5 melanoma = test system: SK-MEL-5 melanoma
HCT-15 colon = test system: HCT-15 colon
HOP-62 NSCLC = test system: HOP-62 NSCLC
MDA-MB-435 = test system: MDA-MB-435
786-0 renal = test system: 786-0 renal
CCRF-CEM leukemia = test system: CCRF-CEM leukemia
NCI/ADR-RES ovarian = test system: NCI/ADR-RES ovarian
UO-31 renal = test system: UO-31 renal
MOLT-4 leukemia = test system: MOLT-4 leukemia
U251 CNS = test system: U251 CNS
OVCAR-4 ovarian = test system: OVCAR-4 ovarian
COLO 205 colon = test system: COLO 205 colon
K-562 leukemia = test system: K-562 leukemia
HS 578T breast = test system: HS 578T breast
HT29 colon = test system: HT29 colon
SF-268 CNS = test system: SF-268 CNS
SF-539 CNS = test system: SF-539 CNS
NCI-H23 lung = test system: NCI-H23 lung
SNB-75 CNS = test system: SNB-75 CNS
UACC-62 melanoma = test system: UACC-62 melanoma
ACHN renal = test system: ACHN renal
OVCAR-8 ovarian = test system: OVCAR-8 ovarian
KM12 colon = test system: KM12 colon
HL-60(TB) leukemia = test system: HL-60(TB) leukemia
SF-295 CNS = test system: SF-295 CNS
PC-3 prostate = test system: PC-3 prostate
MDA-MB-231 breast = test system: MDA-MB-231 breast
SNB-19 CNS = test system: SNB-19 CNS
A498 renal = test system: A498 renal
BT-549 breast = test system: BT-549 breast
LOX IMVI melanoma = test system: LOX IMVI melanoma
SN12C renal = test system: SN12C renal
NCI-H226 lung = test system: NCI-H226 lung
T-47D breast = test system: T-47D breast
IGROV1 ovarian = test system: IGROV1 ovarian
RPMI-8226 leukemia = test system: RPMI-8226 leukemia
TK-10 renal = test system: TK-10 renal
SK-MEL-28 melanoma = test system: SK-MEL-28 melanoma
HCC-2998 colon = test system: HCC-2998 colon
NCI-H460 lung = test system: NCI-H460 lung
SK-MEL-2 melanoma = test system: SK-MEL-2 melanoma
HOP-92 NSCLC = test system: HOP-92 NSCLC

Measured: TGI

C1COCCOP2(N3CC3)=NP(N3CC3)(=NP(N3CC3)(N3CC3)=N2)OCCOCCO1 (configuration not stated)
> 100 µM: EKVX NSCLC | OVCAR-5 ovarian | SK-OV-3 ovarian | MDA-N | MCF7 breast | A549 NSCLC | OVCAR-3 ovarian | MALME-3M melanoma | M14 melanoma | SW-620 colon | SR leukemia | CAKI-1 renal | UACC-257 melanoma | DU-145 prostate | HCT-116 colon | RXF 393 renal | NCI-H522 lung | SK-MEL-5 melanoma | HCT-15 colon | HOP-62 NSCLC | MDA-MB-435 | 786-0 renal | CCRF-CEM leukemia | NCI/ADR-RES ovarian | UO-31 renal | MOLT-4 leukemia | U251 CNS | OVCAR-4 ovarian | COLO 205 colon | K-562 leukemia | HS 578T breast | HT29 colon | SF-268 CNS | SF-539 CNS | NCI-H23 lung | SNB-75 CNS | UACC-62 melanoma | ACHN renal | OVCAR-8 ovarian | KM12 colon | HL-60(TB) leukemia | SF-295 CNS | PC-3 prostate | MDA-MB-231 breast | SNB-19 CNS | A498 renal | BT-549 breast | LOX IMVI melanoma | SN12C renal | NCI-H226 lung | T-47D breast | IGROV1 ovarian | RPMI-8226 leukemia | TK-10 renal

CCN(CC)c1ccc2cc(-c3csc(-c4ccc(N(C)C)cc4)n3)c(=O)oc2c1
> 100 µM: EKVX NSCLC | OVCAR-5 ovarian | SK-OV-3 ovarian | MDA-N | MCF7 breast | A549 NSCLC | MALME-3M melanoma | M14 melanoma | SW-620 colon | SK-MEL-28 melanoma | SR leukemia | CAKI-1 renal | UACC-257 melanoma | DU-145 prostate | HCT-116 colon | RXF 393 renal | NCI-H522 lung | SK-MEL-5 melanoma | HCT-15 colon | HOP-62 NSCLC | MDA-MB-435 | 786-0 renal | CCRF-CEM leukemia | NCI/ADR-RES ovarian | UO-31 renal | MOLT-4 leukemia | U251 CNS | OVCAR-4 ovarian | COLO 205 colon | HCC-2998 colon | K-562 leukemia | NCI-H460 lung | HS 578T breast | HT29 colon | SF-268 CNS | SF-539 CNS | SNB-75 CNS | UACC-62 melanoma | ACHN renal | OVCAR-8 ovarian | KM12 colon | HL-60(TB) leukemia | SF-295 CNS | PC-3 prostate | MDA-MB-231 breast | SNB-19 CNS | SK-MEL-2 melanoma | BT-549 breast | HOP-92 NSCLC | LOX IMVI melanoma | SN12C renal | NCI-H226 lung | T-47D breast | IGROV1 ovarian | RPMI-8226 leukemia | TK-10 renal

C=C(C)COC(=O)COCC(=O)OCC(=C)C
> 100 µM: EKVX NSCLC | OVCAR-5 ovarian | SK-OV-3 ovarian | MDA-N | MCF7 breast | A549 NSCLC | OVCAR-3 ovarian | MALME-3M melanoma | M14 melanoma | SW-620 colon | SK-MEL-28 melanoma | SR leukemia | CAKI-1 renal | UACC-257 melanoma | DU-145 prostate | HCT-116 colon | RXF 393 renal | SK-MEL-5 melanoma | HCT-15 colon | HOP-62 NSCLC | MDA-MB-435 | 786-0 renal | CCRF-CEM leukemia | NCI/ADR-RES ovarian | UO-31 renal | MOLT-4 leukemia | U251 CNS | OVCAR-4 ovarian | COLO 205 colon | HCC-2998 colon | K-562 leukemia | NCI-H460 lung | HS 578T breast | HT29 colon | SF-268 CNS | NCI-H23 lung | SNB-75 CNS | UACC-62 melanoma | ACHN renal | OVCAR-8 ovarian | KM12 colon | SF-295 CNS | PC-3 prostate | MDA-MB-231 breast | SNB-19 CNS | A498 renal | BT-549 breast | HOP-92 NSCLC | SN12C renal | NCI-H226 lung | T-47D breast | IGROV1 ovarian | RPMI-8226 leukemia | TK-10 renal

Nc1ncnc2c1ncn2C1OC(C(=O)OCCO)C(O)C1O (configuration not stated)
> 100 µM: EKVX NSCLC | OVCAR-5 ovarian | SK-OV-3 ovarian | MDA-N | MCF7 breast | A549 NSCLC | OVCAR-3 ovarian | MALME-3M melanoma | M14 melanoma | SW-620 colon | SK-MEL-28 melanoma | SR leukemia | CAKI-1 renal | UACC-257 melanoma | DU-145 prostate | HCT-116 colon | RXF 393 renal | NCI-H522 lung | SK-MEL-5 melanoma | HCT-15 colon | HOP-62 NSCLC | MDA-MB-435 | 786-0 renal | CCRF-CEM leukemia | NCI/ADR-RES ovarian | UO-31 renal | MOLT-4 leukemia | U251 CNS | OVCAR-4 ovarian | COLO 205 colon | K-562 leukemia | NCI-H460 lung | HS 578T breast | HT29 colon | SF-268 CNS | SF-539 CNS | NCI-H23 lung | SNB-75 CNS | UACC-62 melanoma | ACHN renal | OVCAR-8 ovarian | KM12 colon | HL-60(TB) leukemia | SF-295 CNS | PC-3 prostate | MDA-MB-231 breast | SNB-19 CNS | SK-MEL-2 melanoma | A498 renal | BT-549 breast | HOP-92 NSCLC | LOX IMVI melanoma | SN12C renal | NCI-H226 lung | T-47D breast | IGROV1 ovarian | RPMI-8226 leukemia | TK-10 renal
